Values quoted from earlier work in patent US20140088035A1, “TREATING SCHIZOPHRENIA” (THE GENERAL HOSPITAL CORPORATION, priority 2010, published 2014).

Tested on: schizophrenia patients
Details: vitamin supplementation regimens; Levine et al. 2006, Godfrey et al. 1990

## Nc1nc2ncc(CNc3ccc(C(=O)N[C@@H](CCC(=O)O)C(=O)O)cc3)nc2c(=O)[nH]1 [folate, pteroyl-L-glutamic acid]
  symptomatic improvement in schizophrenia patients: associated with symptomatic improvement
